From patent US20160320368A1, “METHOD AND APPARATUS FOR PREDICTING EFFECTIVE DOSE OR SENSITIVITY OF 5-HYDROXY-1H-IMIDAZOLE-4-CARBOXAMIDE, METHOD FOR DETERMINING AMOUNT OF XANTHOSINE MONOPHOSPHATE, AND TREATMENT AGENT AND METHOD FOR TREATING MYELODYSPLASTIC SYNDROME” (FUJIFILM Corporation, priority 2014, published 2016)

How the values were obtained:
[1] = system: human myeloid leukemia cell line SKM-1; experiment: Cell growth inhibitory activity (CellTiter-Glo, 72 hours); assay type: cell-based; details: SKM-1, 72 hours
Procedure: (§1) A ¾ hydrate of Compound A was used as a test compound.
SKM-1 (available from National Institute of Biomedical Innovation JCRB Cell Bank) was used as a human myeloid leukemia cell line.
90 μL (5000 cells) of the human myeloid leukemia cell line SKM-1 was seeded onto a 96-well plate. 10 μL of a PBS solution of the test compound (0 μmol/L, 1 μmol/L, 3 μmol/L, 10 μmol/L, 30 μmol/L, 100 μmol/L, 300 μmol/L, 1000 μmol/L, 3000 μmol/L, or 10000 μmol/L in terms of Compound A) was added to the plate which was then incubated in 5% CO2 at 37° C. for 72 hours. 100 μL of CellTiter-Glo (manufactured by Promega) was added to each well to prepare a cell lysate.
The relative value of chemiluminescence intensity was calculated by a plate reader.

XMP in bone marrow cells = XMP in bone marrow cells of mice after oral administration; assay type: in vivo, female mice (BALB/cAJcl); details: 100 mg/kg oral, non-treated = 100%
Procedure: as §1
0.5% MC or 0.5% MC of the test compound (100 mg/kg in terms of Compound A) was orally administered to female mice (BALB/cAJcl).
Right and left femurs of animals were collected under anesthesia by isoflurane inhalation at 1, 4, 8 or 24 hours post-dose, followed by cutting bone ends and centrifuging at 4° C. and 3000 rpm for 1 min to recover bone marrow cells. The recovered bone marrow cells were suspended in 1 mL of PBS, and the number of cells was counted. After centrifugation at 4° C. and 1000×g for 5 min, the supernatant was removed, and 1000 μL of methanol was added to each tube, followed by stirring. Thereafter, 500 μL of ultrapure water was added thereto, followed by further stirring. 600 μL of the reaction solution was divided into each of two tubes, and 400 μL of chloroform was added to each tube. The reaction solution was stirred and then centrifuged at 4° C. and 10000×g for 15 min. 400 μL of the aqueous phase was recovered and added to an ultrafiltration tube, followed by centrifugation at 12° C. and 9200×g for 2 hours. The filtrates were combined and then dried under reduced pressure at 40° C. for 2 hours by using a centrifugal evaporator. After drying, the resulting product was stored in a freezer at −80° C.
The samples obtained in (2-1) and (2-2) were returned to room temperature, and 40 μL of ultrapure water was added to the hemolysis sample and 150 μL of ultrapure water was added to the bone marrow sample. The mixture was stirred and then centrifuged at 4° C. and 21500×g for 5 min. For the hemolysis sample, 35 μL of the supernatant was transferred to a vial. For the bone marrow sample, 140 μL of the supernatant was transferred to a vial. After storage at 4° C., XMP in samples was determined in the LC-MS/MS determination instrument, LC conditions and MS/MS conditions described in Example 3 (3).
Amounts of XMP (%) were calculated assuming that amounts of XMP in a non-Compound A treated group are defined as 100%.

XMP in whole blood = XMP in whole blood (Example 8); assay type: cell-based, human; details: 37° C., 8 hours, non-treated = 100%
Procedure: as §1
(§2) 450 μL of the blood collected from healthy individuals by heparinized blood collection was added to each tube, and 50 μL of a PBS solution of the test compound (0 μg/mL, 1 μg/mL, 10 μg/mL, or 100 μg/mL in terms of Compound A) for each concentration was added to each tube. The reaction mixture was stirred in an incubator at 37° C. for 8 hours.
(§3) 400 μL of methanol was added to 100 μL of the blood sample obtained in (1). After stirring, 400 μL of chloroform was added, followed by further stirring. 120 μL of ultrapure water was added thereto, followed by stirring and then centrifugation at 4° C. and 10000×g for 15 min. 400 μL of the aqueous phase was recovered and added to an ultrafiltration tube, followed by centrifugation at 12° C. and 9200×g for 2 hours. The filtrate was dried under reduced pressure at 40° C. for 2 hours by using a centrifugal evaporator. After drying, the resulting product was stored in a freezer at −80° C.
(§4) The samples obtained in (2) were returned to room temperature and 40 μL of ultrapure water was added to each sample. The mixture was stirred and centrifuged at 4° C. and 21500×g for 5 min. 35 μL of the supernatant was transferred to a vial. After storage at 4° C., XMP, GMP and GTP in the samples were determined in the LC-MS/MS determination instrument and LC conditions described in Example 3 (3), and MS/MS conditions shown in Table 15.
(§5) Amounts of XMP, GMP and GTP (%) were calculated assuming that the XMP, GMP and GTP values of a non-Compound A treated group (peak area value) are defined as 100%.

GTP in whole blood = GTP in whole blood (Example 8); assay type: cell-based, human; details: 37° C., 8 hours, non-treated = 100%
Procedure: as §1, §2, §3, §4, §5

IC50 [1]: 21.5 µM | IC50 ([1]; in terms of Compound A): 2.73 µg/mL
Compound: NC(=O)c1nc[nH]c1O [Compound A, 5-Hydroxy-1H-imidazole-4-carboxamide]
Amount of XMP (%) Bone marrow cell (XMP in bone marrow cells; 1 hr post-dose): 8.7% | Amount of XMP (%) Bone marrow cell (XMP in bone marrow cells; 4 hr post-dose): 16.5% | Amount of XMP (%) Bone marrow cell (XMP in bone marrow cells; 8 hr post-dose): 25.9% | Amount of XMP (%) Bone marrow cell (XMP in bone marrow cells; 24 hr post-dose): 82.7% | Amount of each compound in whole blood (%) XMP (XMP in whole blood; Compound A 1 μg/mL): 55% | Amount of each compound in whole blood (%) XMP (XMP in whole blood; Compound A 10 μg/mL): 30% | Amount of each compound in whole blood (%) XMP (XMP in whole blood; Compound A 100 μg/mL): 13% | Amount of each compound in whole blood (%) GTP (GTP in whole blood; Compound A 1 μg/mL): 89% | Amount of each compound in whole blood (%) GTP (GTP in whole blood; Compound A 10 μg/mL): 86% | Amount of each compound in whole blood (%) GTP (GTP in whole blood; Compound A 100 μg/mL): 79%
